Source: patent US20250197368A1 (priority 2020, published 2025)

Assays:
[1] = target: human α2β3γ2 GABAARs (benzodiazepine site) (Homo sapiens (Human), UniProt P18507+P47869); assay: In vitro radioligand binding assay ([3H]Ro15-1788 displacement), α2-GABAAR Ki
Method in brief: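 Membranes from dexamethasone-induced mouse L(tk−) cells stably expressing the human receptor were incubated 1 h at 4° C with 4 nM [3H]Ro15-1788 and graded compound; nonspecific binding with 1-3 μM TP003. Filter-bound radioactivity counted; Ki from IC50 by Cheng-Prusoff using the measured radioligand Kd.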

[2] = target: human α3β3γ2 GABAARs (benzodiazepine site) (Homo sapiens (Human), UniProt P18507+P34903); assay: In vitro radioligand binding assay ([3H]Ro15-1788 displacement), α3-GABAAR Ki; conditions: L(tk-) cell membranes, 4 nM [3H]Ro15-1788
Protocol: The affinity (Ki) of compounds for the benzodiazepine site of human recombinant GABAARs was measured by their ability to inhibit the binding of the selective benzodiazepine antagonist [^3H]Ro15-1788 ([^3H] flumazenil).
Mouse L(tk^−) cells stably expressing human α1β3γ2, α2β3γ2, α3β3γ2, α5β3γ2 GABAARs were generated by transfection of the individual subunits in the dexamethasone-inducible expression vector pMSGneo in mouse L(tk^−) cells (Hadingham et al., 1993, Mol. Pharmacol. 43:970-975 and 1993, Mol. Pharmacol. 44:1211-1218).
L(tk^−) cells stably expressing human α1β3γ2, α2β3γ2, α3β3γ2, α5β3γ2 GABAARs were maintained in DMEM F12 medium supplemented with 10% Foetal Bovine Serum, 1% Penicillin/Streptomycin and 1 mg/mL Geneticin G418 in an incubator at 37° C. with a humidified atmosphere with 5% CO2. Dexamethasone was added to the culture medium to induce GABAAR expression.
L(tk−) cells were harvested and membranes were prepared for each receptor combination in either TE buffer (10 mM Tris·CI/0.1 mM EDTA, pH 7.5) or phosphate buffer (K2PO4 10 mM, pH 7.0) (Hadingham et al. (1992) Proc. Natl. Acad. Sci. USA; 89 (14): 6378-82). Protein concentration, receptor expression and the Kd of [^3H]Ro15-1788 were determined before Ki value of the compounds were evaluated. For Kd evaluation, saturation binding curves were obtained by incubating membrane with various concentrations of [^3H]Ro15-1788 (82.5 Ci/mM), with nonspecific binding measured in the presence of 1-3 μM TP003.
For Ki evaluation, cell membranes were incubated with 4 nM [^3H]Ro15-1788 along with a range of concentrations of test compound. Nonspecific binding was determined using 1-3 μM TP003. All incubations were performed for 1 hour at 4° C. in assay buffer. The total assay volume was 0.5 mL, containing 40 μg/well α1β3γ2, 30 μg/well α2β3γ2, 40 μg/well α3β3γ2 and 30 μg/well for α5β3γ2 of membrane protein. Incubations were terminated by filtration and washing with ice cold Tris-HCl buffer (50 mM, pH=7.4) over Whatman GF/B filters and the radioactivity of the filters was measured using liquid scintillation counting.
The % inhibition of [^3H]Ro15-1788 binding was plotted as a function of compound concentration and the IC50 calculated. From the IC50, the affinity (Ki) was calculated using the method of Cheng and Prusoff using the Kd values obtained for [^3H]Ro15-1788.

[3] = tested on: human α2β3γ2 GABAARs; assay: In vitro electrophysiological recording assay (automated patch-clamp), α2-GABAAR relative efficacy; type: cell-based; conditions: % efficacy normalised to diazepam; GABA EC10-20; concentration generally >= 100 times Ki
Method in brief: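 Automated whole-cell patch clamp at 20-22° C on L(tk^−) cells (QPatch, −65 mV) or HEK293 cells (SyncroPatch, −80 mV) stably expressing the human receptor. Compound pre-applied ≥1 min, then co-applied with GABA EC10-20; % potentiation of leak-corrected peak current, normalised to diazepam, typically at ≥100× Ki.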

[4] = tested on: human α3β3γ2 GABAARs; assay: In vitro electrophysiological recording assay (automated patch-clamp), α3-GABAAR relative efficacy; type: cell-based; conditions: % efficacy normalised to diazepam; GABA EC10-20; concentration generally >= 100 times Ki
Protocol: The efficacy of modulators was evaluated using the automated patch-clamp platforms QPatch16 (Sophion, Copenhagen, Denmark) or SyncroPatch 384PE (Nanion, Germany).
For QPatch electrophysiology testing L(tk^−) cells stably expressing human α1β3γ2, α2β3γ2, α3β3γ2, α5β3γ2 GABAARs were used. HEK293 cells stably expressing human α1β3γ2L, α2β3γ2L, α3β3γ2L and α5β3γ2L GABAARs were used for the SyncroPatch 384PE experiments.
All experiments were carried out at room temperature (20-22° C.) using a standard whole cell procedure and physiological solutions. Gigaseals were formed upon execution of a combined suction/voltage protocol with subsequent increased suction leading to the whole-cell configuration.
The currents recorded were acquired at either 1 KHz or 2 KHz and filtered using a Bessel filter. Whole-cell currents were measured at a holding potential of-65 mV (QPatch) or −80 mV (SyncroPatch).
For QPatch experiments, the extracellular solution contained of: 145 mM NaCl, 4 mM KCl, 1 mM MgCl2, 2 mM CaCl2), 10 mM HEPES, 10 mM D-glucose (pH 7.4), and the intracellular solution consisted of: 96 mM KCl, 28 mM CsCl, 25 mM KOH, 4.3 mM CaCl2), 1.4 mM MgCl2, 10 mM EGTA, 10 mM HEPES, 3 mM MgATP (pH 7.2). The osmolarities of the extracellular and intracellular solutions were 305 and 295 mOsm respectively.
For SyncroPatch experiments, the extracellular recording solution contained: 140 mM NaCl, 4 mM KCl, 2 mM CaCl2), 1 mM MgCl2, 10 mM HEPES, 5 mM glucose (pH 7.4 with NaOH and osmolarity of c. 300-310 mOsm). The intracellular recording solution consisted of: 90 mM KCl, 50 mM KF, 1.5 mM MgCl2, 11.1 mM EGTA and 10 mM HEPES (pH 7.2 with KOH and osmolarity of c. 300 mOsm). 2 mM of NaATP was added to the intracellular solution on the day of testing.
The effects of modulators were evaluated in the presence of a submaximal GABA concentration, giving typically less than 30% activation of the response elicited by a saturating GABA concentration. To check and ensure baseline current stability before compound addition, two to five consecutive applications of GABA EC10-20 separated by wash steps were performed before compound addition. The test compound was applied 1 min at least prior to co-application with GABA EC10-20. Following a further wash step, a saturating concentration of GABA was applied at the end of each recording, allowing the accurate evaluation for each cell of the percentage baseline activation elicited by the submaximal GABA applied.
The compounds were first dissolved in DMSO as a 10 mM stock and then further diluted to the testing concentrations so that the final DMSO concentration in the extracellular recording solution was 0.1% (QPatch) or 0.2% (SyncroPatch).
The % efficacy of modulators was determined from the GABA elicited currents recorded in the presence and absence of the test compound, using the formula:
[((compound peak current−leak)−(GABA peak current-leak))/(GABA peak current−leak)]*100,
where ‘leak’ is the leak baseline current at the holding potential, ‘compound peak current’ is the current elicited by co-application of compound and GABA, and ‘GABA peak current’ is the current elicited by GABA alone at the last GABA application before compound addition. The results were presented as ‘relative efficacy’ for each compound generally at a concentration equal or higher than 100 times their determined Ki. The relative efficacy of a compound was calculated by normalising its % efficacy to the corresponding % efficacy of diazepam that was separately determined.

human α2β3γ2 GABAARs (benzodiazepine site), sequence (P47869 29-451): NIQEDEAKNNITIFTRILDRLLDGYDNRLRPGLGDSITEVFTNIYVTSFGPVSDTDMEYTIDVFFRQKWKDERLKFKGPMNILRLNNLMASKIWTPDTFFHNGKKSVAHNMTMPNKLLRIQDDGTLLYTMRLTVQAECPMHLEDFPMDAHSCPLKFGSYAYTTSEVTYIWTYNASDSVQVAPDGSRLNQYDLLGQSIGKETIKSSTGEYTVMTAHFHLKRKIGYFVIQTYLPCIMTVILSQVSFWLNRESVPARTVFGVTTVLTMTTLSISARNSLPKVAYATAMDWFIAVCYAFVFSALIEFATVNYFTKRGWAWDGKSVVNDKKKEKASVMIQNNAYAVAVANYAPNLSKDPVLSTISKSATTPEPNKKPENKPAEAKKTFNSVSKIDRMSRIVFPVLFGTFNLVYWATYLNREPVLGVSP
human α2β3γ2 GABAARs (benzodiazepine site), sequence (P28472 26-473 partner): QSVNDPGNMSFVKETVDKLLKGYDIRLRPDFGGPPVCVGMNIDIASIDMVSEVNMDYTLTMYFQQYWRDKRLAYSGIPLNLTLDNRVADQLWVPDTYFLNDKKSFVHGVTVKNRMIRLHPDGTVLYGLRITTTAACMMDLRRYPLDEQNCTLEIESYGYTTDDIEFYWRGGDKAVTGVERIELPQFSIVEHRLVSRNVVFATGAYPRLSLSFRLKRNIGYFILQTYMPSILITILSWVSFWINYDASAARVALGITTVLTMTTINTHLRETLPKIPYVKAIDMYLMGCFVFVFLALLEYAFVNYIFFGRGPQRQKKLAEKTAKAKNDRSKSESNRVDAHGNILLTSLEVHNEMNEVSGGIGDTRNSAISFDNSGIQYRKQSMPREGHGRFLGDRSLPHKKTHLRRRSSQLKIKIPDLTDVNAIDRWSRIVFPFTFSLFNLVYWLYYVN
human α2β3γ2 GABAARs (benzodiazepine site), sequence (P18507 40-475): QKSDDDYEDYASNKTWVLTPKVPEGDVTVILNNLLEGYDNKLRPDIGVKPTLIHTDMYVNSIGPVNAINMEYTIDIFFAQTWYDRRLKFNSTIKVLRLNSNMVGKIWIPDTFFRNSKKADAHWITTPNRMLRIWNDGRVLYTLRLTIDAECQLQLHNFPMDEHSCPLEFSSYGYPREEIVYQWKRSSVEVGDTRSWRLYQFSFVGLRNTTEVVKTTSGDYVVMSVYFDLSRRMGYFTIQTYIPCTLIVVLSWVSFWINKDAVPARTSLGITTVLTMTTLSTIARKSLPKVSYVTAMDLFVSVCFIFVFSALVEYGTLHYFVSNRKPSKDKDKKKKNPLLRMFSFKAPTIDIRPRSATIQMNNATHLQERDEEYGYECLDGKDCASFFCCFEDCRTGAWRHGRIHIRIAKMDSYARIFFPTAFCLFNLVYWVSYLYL

SMILES: CCCNC(=O)c1c(N)c2cccc(-c3nc(C)ccc3F)c2[nH]c1=O [Example 7, 4-Amino-8-(3-fluoro-6-methyl-2-pyridyl)-2-oxo-N-propyl-1H-quinoline-3-carboxamide]
- Ki [1]: 0.59 nM
- Ki [2]: 1.17 nM
- α2-GABAAR Relative Efficacy (vs. Diazepam) [3]: 0.16
- α3-GABAAR Relative Efficacy (vs. Diazepam) [4]: 0.43

SMILES: CCCNC(=O)c1c(N)c2cccc(-c3nc(CO)ccc3F)c2[nH]c1=O [Example 11, 4-Amino-8-[3-fluoro-6-(hydroxymethyl)-2-pyridyl]-2-oxo-N-propyl-1H-quinoline-3-carboxamide]
- Ki [1]: 2.13 nM
- Ki [2]: 4.38 nM
- α2-GABAAR Relative Efficacy (vs. Diazepam) [3]: 0.32
- α3-GABAAR Relative Efficacy (vs. Diazepam) [4]: 0.24

SMILES: CCCNC(=O)c1c(N)c2cccc(-c3cncc(CO)c3)c2[nH]c1=O [Example 25, 4-Amino-8-[5-(hydroxymethyl)-3-pyridyl]-2-oxo-N-propyl-1H-quinoline-3-carboxamide]
- Ki [1]: 3.4 nM
- α2-GABAAR Relative Efficacy (vs. Diazepam) [3]: 0.15
- α3-GABAAR Relative Efficacy (vs. Diazepam) [4]: 0.10

SMILES: CCCNC(=O)c1c(N)c2cccc(-c3ccnc(CO)c3)c2[nH]c1=O [Example 32, 4-Amino-8-[2-(hydroxymethyl)-4-pyridyl]-2-oxo-N-propyl-1H-quinoline-3-carboxamide]
- Ki [1]: 3.09 nM
- Ki [2]: 6.86 nM
- α2-GABAAR Relative Efficacy (vs. Diazepam) [3]: 0.24
- α3-GABAAR Relative Efficacy (vs. Diazepam) [4]: 0.29

SMILES: CCCNC(=O)c1c(N)c2cccc(-c3cc(OC)ncc3F)c2[nH]c1=O [Example 34, 4-Amino-8-(5-fluoro-2-methoxy-4-pyridyl)-2-oxo-N-propyl-1H-quinoline-3-carboxamide]
- Ki [1]: 0.68 nM
- Ki [2]: 1.58 nM
- α2-GABAAR Relative Efficacy (vs. Diazepam) [3]: 0.49
- α3-GABAAR Relative Efficacy (vs. Diazepam) [4]: 0.47

SMILES: CCCNC(=O)c1c(N)c2cccc(-c3cccc4c3OC(F)(F)O4)c2[nH]c1=O [Example 51, 4-Amino-8-(2,2-difluoro-1,3-benzodioxol-4-yl)-2-oxo-N-propyl-1H-quinoline-3-carboxamide]
- Ki [1]: 1.71 nM
- Ki [2]: 1.63 nM
- α2-GABAAR Relative Efficacy (vs. Diazepam) [3]: 0.31

SMILES: CCCNC(=O)c1c(N)c2cccc(-c3nc(C)[nH]c3C)c2[nH]c1=O [Example 52, 4-Amino-8-(2,5-dimethyl-1H-imidazol-4-yl)-2-oxo-N-propyl-1H-quinoline-3-carboxamide]
- Ki [1]: 6.61 nM
- α2-GABAAR Relative Efficacy (vs. Diazepam) [3]: 0.53
- α3-GABAAR Relative Efficacy (vs. Diazepam) [4]: 0.41

SMILES: CCCNC(=O)c1c(N)c2cccc(-c3ccnn3C)c2[nH]c1=O [Example 53, 4-Amino-8-(2-methylpyrazol-3-yl)-2-oxo-N-propyl-1H-quinoline-3-carboxamide]
- Ki [1]: 8.05 nM
- Ki [2]: 18.4 nM
- α2-GABAAR Relative Efficacy (vs. Diazepam) [3]: 0.17

SMILES: CCCNC(=O)c1c(N)c2cccc(-c3cc(OCc4cccc(C)n4)ccc3F)c2[nH]c1=O [Example 88, 4-Amino-8-[2-fluoro-5-[(6-methyl-2-pyridyl)methoxy]phenyl]-2-oxo-N-propyl-1H-quinoline-3-carboxamide]
- Ki [1]: 1.97 nM
- Ki [2]: 1.37 nM
- α2-GABAAR Relative Efficacy (vs. Diazepam) [3]: 0.26

SMILES: CCCNC(=O)c1c(N)c2cccc(-c3cc(OCc4csc(C)n4)ccc3F)c2[nH]c1=O [Example 120, 4-Amino-8-(2-fluoro-5-((2-methylthiazol-4-yl)methoxy)phenyl)-2-oxo-N-propyl-1,2-dihydroquinoline-3-carboxamide]
- Ki [1]: 1.19 nM
- Ki [2]: 1.18 nM
- α2-GABAAR Relative Efficacy (vs. Diazepam) [3]: 0.21

SMILES: CCCNC(=O)c1c(N)c2cccc(-c3cc(OCc4cocn4)ccc3F)c2[nH]c1=O [Example 121, 4-Amino-8-[2-fluoro-5-(oxazol-4-ylmethoxy)phenyl]-2-oxo-N-propyl-1H-quinoline-3-carboxamide]
- Ki [1]: 0.3 nM
- Ki [2]: 0.61 nM
- α2-GABAAR Relative Efficacy (vs. Diazepam) [3]: 0.35

SMILES: CCCNC(=O)c1c(N)c2cccc(-c3cc(OCc4coc(C)n4)ccc3F)c2[nH]c1=O [Example 122, 4-Amino-8-(2-fluoro-5-((2-methyloxazol-4-yl)methoxy)phenyl)-2-oxo-N-propyl-1,2-dihydroquinoline-3-carboxamide]
- Ki [1]: 0.89 nM
- Ki [2]: 3.56 nM
- α2-GABAAR Relative Efficacy (vs. Diazepam) [3]: 0.33

SMILES: CCCNC(=O)c1c(N)c2cccc(-c3cc(OCc4nnc(C(F)(F)F)o4)ccc3F)c2[nH]c1=O [Example 132, 4-Amino-8-[2-fluoro-5-[[5-(trifluoromethyl)-1,3,4-oxadiazol-2-yl]methoxy]phenyl]-2-oxo-N-propyl-1H-quinoline-3-carboxamide]
- Ki [1]: 0.66 nM
- Ki [2]: 1.19 nM
- α2-GABAAR Relative Efficacy (vs. Diazepam) [3]: 0.24

SMILES: CCCNC(=O)c1c(N)c2cccc(-c3cc(CN4CCC5(CC4)CN(C)C5)ccc3F)c2[nH]c1=O [Example 144, 4-Amino-8-(2-fluoro-5-((2-methyl-2,7-diazaspiro[3.5]nonan-7-yl)methyl)phenyl)-2-oxo-N-propyl-1,2-dihydroquinoline-3-carboxamide]
- Ki [1]: 1.99 nM
- Ki [2]: 5.43 nM
- α2-GABAAR Relative Efficacy (vs. Diazepam) [3]: 0.41
